Converted amounts (≈) assume the structure as drawn.
How the values were obtained:
Pasteurella multocida = assay: MIC by broth-microdilution method (CLSI VET01-A4), Pasteurella multocida strains; type: cell-based; conditions: for MIC PM 6267: Pasteurella multocida PM 6267 (P 2225 (L386)), reference strain (mouse infection strain); for MIC PM 6391: Pasteurella multocida PM 6391 (ATCC 43137), reference strain; for MIC PM 10775: Pasteurella multocida PM 10775 (080130003051); for MIC PM 10775 / MIC PM 12080: BRD field isolate; for MIC PM 12080: Pasteurella multocida PM 12080 (IV102277-0093)
Experimental: (§1) For example, representative compounds were tested against Mannheimia haemolytica and Pasteurella multocida, using the conventional broth-dilution assay.
(§2) The Minimum inhibitory concentrations (MIC) of compounds according to the invention for a number of veterinary bacterial pathogens were determined by the broth-microdilution method according to CLSI document VET01-A4.
(§3) Microdilution trays containing a doubling dilution series of the test compound were used for the tests. The MIC results were interpreted according to the CLSI documents VET01-S3. The lowest concentration of compound at which no visible growth (i.e. no turbidity) detected by the unaided eye was recorded as the MIC.

Mannheimia haemolytica = assay: MIC by broth-microdilution method (CLSI VET01-A4), Mannheimia haemolytica strains; type: cell-based; conditions: for MIC MH 6357: Mannheimia haemolytica MH 6357 (M7/2), reference strain (cattle infection strain); for MIC MH 6374: Mannheimia haemolytica MH 6374 (ATCC 33396), reference strain; for MIC MH 10720: Mannheimia haemolytica MH 10720 (154); for MIC MH 10720 / MIC MH 12587 / MIC MH 13093: BRD field isolate; for MIC MH 12587: Mannheimia haemolytica MH 12587 (1071), macrolide-resistance: erm+, E+; for MIC MH 13093: Mannheimia haemolytica MH 13093 (XB0472-6014.1)
Experimental: as §1, §2, §3

Compound | MIC PM 6267 (Pasteurella multocida) [µM] | MIC PM 6391 (Pasteurella multocida) [µM] | MIC PM 10775 (Pasteurella multocida) [µM] | MIC PM 12080 (Pasteurella multocida) [µM] | MIC MH 6357 (Mannheimia haemolytica) [µM] | MIC MH 6374 (Mannheimia haemolytica) [µM] | MIC MH 10720 (Mannheimia haemolytica) [µM] | MIC MH 12587 (Mannheimia haemolytica) [µM] | MIC MH 13093 (Mannheimia haemolytica) [µM]
COCCNCc1ccc(C#Cc2ccc3c(NC(C(=O)NO)C(C)(C)N)ncnc3c2)cc1 (racemic) [Compound 18] | 3.1 (≈ 1.43 µg/mL) | 6.3 (≈ 2.91 µg/mL) | 0.8 (≈ 0.37 µg/mL) | 12.5 (≈ 5.78 µg/mL) | 25 (≈ 11.6 µg/mL) | 25 (≈ 11.6 µg/mL) | 6.3 (≈ 2.91 µg/mL) | 50 (≈ 23.1 µg/mL) | 25 (≈ 11.6 µg/mL)
C[C@@H](O)[C@H](Nc1ncnc2cc(C#Cc3ccc(CN4CCOCC4)cc3)ccc12)C(=O)NO [Compound 1] | 1.6 (≈ 0.738 µg/mL) | 0.2 (≈ 0.0923 µg/mL) | ≤0.1 | ≤0.1 | 1.6 (≈ 0.738 µg/mL) | 3.1 (≈ 1.43 µg/mL) | 0.2 (≈ 0.0923 µg/mL) | 3.1 (≈ 1.43 µg/mL) | 3.1 (≈ 1.43 µg/mL)
C[C@@H](O)[C@H](Nc1ncnc2cc(C#Cc3ccc(CNC4CC4)cc3)ccc12)C(=O)NO [Compound 2] | 1.6 (≈ 0.69 µg/mL) | 0.2 (≈ 0.0863 µg/mL) | ≤0.1 | ≤0.1 | 0.8 (≈ 0.345 µg/mL) | 1.6 (≈ 0.69 µg/mL) | ≤0.1 | 3.1 (≈ 1.34 µg/mL) | 3.1 (≈ 1.34 µg/mL)
COCCNCc1ccc(C#Cc2ccc3c(N[C@H](C(=O)NO)[C@@H](C)O)ncnc3c2)cc1 [Compound 3] | 0.2 (≈ 0.0899 µg/mL) | 0.4 (≈ 0.18 µg/mL) | ≤0.1 | 3.1 (≈ 1.39 µg/mL) | 6.3 (≈ 2.83 µg/mL) | 6.3 (≈ 2.83 µg/mL) | 6.3 (≈ 2.83 µg/mL) | 12.5 (≈ 5.62 µg/mL) | 6.3 (≈ 2.83 µg/mL)
C=CCNCc1ccc(C#Cc2ccc3c(N[C@H](C(=O)NO)[C@@H](C)O)ncnc3c2)cc1 [Compound 4] | 0.2 (≈ 0.0863 µg/mL) | 0.4 (≈ 0.173 µg/mL) | ≤0.1 | 1.6 (≈ 0.69 µg/mL) | 1.6 (≈ 0.69 µg/mL) | 3.1 (≈ 1.34 µg/mL) | 1.6 (≈ 0.69 µg/mL) | 6.3 (≈ 2.72 µg/mL) | 3.1 (≈ 1.34 µg/mL)
C[C@@H](O)[C@H](Nc1ncnc2cc(C#Cc3ccc(CNCc4ccccc4)cc3)ccc12)C(=O)NO [Compound 5] | ≤0.1 | 0.2 (≈ 0.0963 µg/mL) | ≤0.1 | 0.8 (≈ 0.385 µg/mL) | 0.8 (≈ 0.385 µg/mL) | 0.8 (≈ 0.385 µg/mL) | 0.8 (≈ 0.385 µg/mL) | 3.1 (≈ 1.49 µg/mL) | 1.6 (≈ 0.77 µg/mL)
C[C@@H](O)[C@H](Nc1ncnc2cc(C#Cc3ccc(CNCC(F)(F)F)cc3)ccc12)C(=O)NO [Compound 6] | ≤0.1 | ≤0.1 | ≤0.1 | 0.4 (≈ 0.189 µg/mL) | 0.8 (≈ 0.379 µg/mL) | 0.8 (≈ 0.379 µg/mL) | 0.4 (≈ 0.189 µg/mL) | 1.6 (≈ 0.758 µg/mL) | 0.8 (≈ 0.379 µg/mL)
C[C@@H](O)[C@H](Nc1nsc2cc(C#Cc3ccc(CNC4CC4)cc3)ccc12)C(=O)NO [Compound 10] | ≤0.1 | >100 | ≤0.1 | ≤0.1 | 0.2 (≈ 0.0873 µg/mL) | 0.4 (≈ 0.175 µg/mL) | ≤0.1 | 0.8 (≈ 0.349 µg/mL) | 0.4 (≈ 0.175 µg/mL)
C=CCNCc1ccc(C#Cc2ccc3c(N[C@H](C(=O)NO)[C@@H](C)O)nsc3c2)cc1 [Compound 11] | ≤0.1 | 0.2 (≈ 0.0873 µg/mL) | ≤0.1 | 0.4 (≈ 0.175 µg/mL) | 0.4 (≈ 0.175 µg/mL) | 0.4 (≈ 0.175 µg/mL) | ≤0.1 | 1.6 (≈ 0.698 µg/mL) | 0.8 (≈ 0.349 µg/mL)
COCCNCc1ccc(C#Cc2ccc3c(N[C@H](C(=O)NO)[C@@H](C)O)nsc3c2)cc1 [Compound 12] | ≤0.1 | >100 | ≤0.1 | 0.8 (≈ 0.364 µg/mL) | 0.8 (≈ 0.364 µg/mL) | 0.8 (≈ 0.364 µg/mL) | 0.2 (≈ 0.0909 µg/mL) | 3.1 (≈ 1.41 µg/mL) | 1.6 (≈ 0.727 µg/mL)
C[C@@H](O)[C@H](Nc1nsc2cc(C#Cc3ccc(CN4CCOCC4)cc3)ccc12)C(=O)NO [Compound 13] | ≤0.1 | 100 (≈ 46.7 µg/mL) | ≤0.1 | 1.6 (≈ 0.747 µg/mL) | 3.1 (≈ 1.45 µg/mL) | 6.3 (≈ 2.94 µg/mL) | 1.6 (≈ 0.747 µg/mL) | 6.3 (≈ 2.94 µg/mL) | 3.1 (≈ 1.45 µg/mL)
C[C@@H](O)[C@H](Nc1nsc2cc(C#Cc3ccc(CNCc4ccccc4)cc3)ccc12)C(=O)NO [Compound 14] | ≤0.1 | 100 (≈ 48.7 µg/mL) | ≤0.1 | 0.2 (≈ 0.0973 µg/mL) | 0.8 (≈ 0.389 µg/mL) | 0.8 (≈ 0.389 µg/mL) | ≤0.1 | 1.6 (≈ 0.779 µg/mL) | 0.8 (≈ 0.389 µg/mL)
C[C@@H](O)[C@H](Nc1nsc2cc(C#Cc3ccc(CNCC(F)(F)F)cc3)ccc12)C(=O)NO [Compound 15] | ≤0.1 | >100 | ≤0.1 | 0.4 (≈ 0.191 µg/mL) | 1.6 (≈ 0.766 µg/mL) | 1.6 (≈ 0.766 µg/mL) | ≤0.1 | 3.1 (≈ 1.48 µg/mL) | 1.6 (≈ 0.766 µg/mL)

Reference: US12227485B2, “Compounds useful for the treatment of infection with Mannheimia haemolytica or Histophilus somni” (Intervet Inc., priority 2018, dated 2025)
